Reference: patent US8173441B2, “Method for applying NMR for ligand discovery or as a drug screening tool” (Universiteit Leiden, priority 2001, dated 2012)
Entries after “also recorded” stand apart in the source; their conditions may differ.

Key:
[1] = target: T1, C-terminal SH2 domain (CSH2) from the 85 kDa, alpha form of the regulatory subunit of bovine phosphoinositide 3′ kinase (Bos taurus, UniProt P23727); experiment: Target immobilized NMR screening (TINS): 1H-NMR difference spectrum, control resin vs resin with CSH2 covalently bound; assay type: binding; conditions: 1 mM each compound in D2O, d11-Tris pH 7.5, 50 mM NaCl, CSH2 on Actigel ALD resin
T1 construct: the c-terminal SH2 domain of p85alpha was prepared as previously described by Siegal et al; made in house
Text: In this example, it was aimed to investigate whether binding of a small molecule to a target bound to the resin would be detectable in the ^1H spectrum. The test system utilized the C-terminal SH2 domain (CSH2) from the 85 kDa, alpha form of the regulatory subunit of bovine phosphoinositide 3′ kinase. This small (110 residues) protein domain has well characterized binding specificity.
To see whether the method of the present invention provides a mode appropriate for efficient screening of a large library of compounds, CSH2 was immobilized on a chemically activated chromatography resin of Actigel ALD by covalent attachment. Attachment occurs via primary amines on the surface of CSH2 as described in the manufacturers literature and therefore is (approximately) randomly oriented.
In detail, the c-terminal SH2 domain of p85alpha was prepared as previously described by Siegal et al. in J. Mol. Biol. 276(1998), 461-478. 11 mg of this domain CSH2 in a buffer consisting of 25 mM HEPES pH 7.5 and 100 mM NaCl was incubated with 1 ml of Actigel ALD (Sterogene, Carlsbad, Calif., USA) according to the manufacturers protocol. This amount corresponds to a 1 mM solution concentration. Unbound sites on the gel were blocked using d11-Tris (Cambridge Isotopes, Andover, Mass., USA). The control resin was derivatized exclusively with d11-Tris.
The potential ligands were dissolved in 99% D2O with d11-Tris.
In all cases, the control and experimental target containing resins were washed three times with the same mixture of test substances.
All NMR spectra were recorded on a Bruker (Bruker, Germany) DMX 600 spectrometer. Spectra typically consisted of 16 to 64 transients of 2 k complex points, were apodized using a sin^2 function and automatically baseline corrected using the supplied XWINNMR software provided by the manufacturer, Bruker, and methods described in the manufacturers literature. Difference spectra were also calculated using XWINNMR

[2] = test system: 26 base synthetic double stranded 5′ biotinylated oligonucleotide (DNA); experiment: TINS: 1H-NMR difference spectrum, streptavidin-sepharose resin vs resin with biotinylated oligonucleotide bound; assay type: binding; conditions: 1 mM solution in D2O; oligonucleotide on streptavidin-sepharose resin
SH2 domain (CSH2) = SH2 domain (CSH2) (Bos taurus, UniProt P23727); conditions: mimic of the natural ligand; cited from earlier work
SH2 domain (CSH2), sequence (P23727 624-718 limits assumed): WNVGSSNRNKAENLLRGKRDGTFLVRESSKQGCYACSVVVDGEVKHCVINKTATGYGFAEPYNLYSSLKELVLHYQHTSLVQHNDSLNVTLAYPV

T1 sequence (P23727 624-718 limits assumed): as above

| Structure (SMILES) | binding to immobilized CSH2 (diminution of peaks / peaks in the difference spectrum) [1] | binding to immobilized oligonucleotide (peaks in the difference spectrum) [2] | other results |
| --- | --- | --- | --- |
| CSCC[C@H](N)C(=O)O [methionine] |  |  | binding to immobilized CSH2 (diminution of peaks / peaks in the difference spectrum) ([1]; listed as M): small residual peaks; also recorded: Weak binding |
| NCC(=O)O [glycine] | do not bind |  |  |
| NCCCNCCCCNCCCN [spermine] |  | Only peaks derived from spermine; also recorded: can be detected; also recorded: only spermine peaks remain |  |
| N=C(N)NCCC[C@H](N)C(=O)O [arginine] | do not bind | do not bind |  |
| c1c[nH]cn1 [imidazole, Imidazole] |  | do not bind |  |
| N[C@@H](Cc1ccc(OP(=O)(O)O)cc1)C(=O)O [phosphotyrosine] | only peaks derived from phosphotyrosine | do not bind | binding to immobilized CSH2 (diminution of peaks / peaks in the difference spectrum) ([1]; listed as pY): clear diminution of the peaks; also recorded: relatively tight binding; Kd (SH2 domain (CSH2)): ~600 µM |
